SMILES strings stand for the structures.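 Protocol summary: plate cells (96-well), add compound at 5 concentrations, incubate 48 h, interpolate endpoints linearly. At the GI50, growth is halved. The concentration for full growth arrest is given as TGI.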 Where only a bound is given, the exact number is not on record here.

Holding throughout (test): NCI tumour cell line growth inhibition, 48 h
For assay [1], the system named is P388 leukemia.
The subject of assay [2] is MDA-N.
Assay [3] has as its system KM20L2 colon.
Assay [4] concerns P388/ADR leukemia.
The subject of assay [5] is DMS 273 small cell lung.
For assay [6], the system named is DMS 114 small cell lung.
In assay [7] the test system is XF 498 CNS.
Assay [8] has as its system DLD-1 colon.
Assay [9] concerns SNB-78 CNS.
The subject of assay [10] is RXF-631 renal.
Assay [11] relates to SN12K1 renal.
In assay [12] the test system is LXFL 529 NSCLC.

Take `CNC(=O)OCc1nc(SSC(C)(C)C)n(C)c1COC(=O)NC`: the TGI was > 100 µM in assay [1]; 6.59 µM in assay [2]; 25.6 µM in assay [3]; > 28.2 µM in assay [4]; 17.3 µM in assay [5]; 4.15 µM in [6]. Moreover, the TGI in assay [7] worked out at 5.47 µM; in assay [8] it was 3.18 µM; in assay [9], 21.2 µM; in [10], 3.42 µM; in assay [11], 14.9 µM; in assay [12], 2.74 µM.

For the compound `N[C@H](C(=O)O)[C@@H]1CC(Cl)=NO1`, the TGI in assay [1] is 16 µM; in assay [2], > 1000 µM; in [3], > 1000 µM; in [4], 16.7 µM; in [5] it was 328 µM; in assay [6], 258 µM. The TGI in [7] was 250 µM; in [8], > 1000 µM; in assay [9], > 978 µM; in [11], > 1000 µM. Moreover, the GI50 in assay [2] was 57.2 µM.
